Source: paper PMC10590056, “Design and synthesis of cabotegravir derivatives bearing 1,2,3-triazole and evaluation of anti-liver cancer activity” (Frontiers in Pharmacology, 2023)
Several values for one entry are separate records, joined by “and”; a condition that tells them apart may be missing. Identical values can stand only once.

Assays:
Assay type in all cases: cell-based
HepG2 cells = experiment: MTT assay for cell proliferation and cytotoxicity, HepG2; parameters: key to Inhibitory rate: inhibition rate = 1 - mean A490 sample/mean A490 control (fraction); conditions: for IC50: HepG2, 48 h, MTT; for Inhibitory rate / ODtreated/ODcontrol: HepG2, fraction, per experiment; for Inhibition rate (16μM), 48 h, HepG2: preliminary screening, HepG2, 16 μM, mean±SD, unit not given
Method: (§1) HepG2, HeLa, MCF-7, and KYSE-30 cells were grown in a humidified incubator at 37°C with 5% CO2 in DMEM supplemented with 10% fetal bovine serum (FBS), […] streptomycin, and 100 U/mL penicillin.
(§2) When HepG2 cells reached 80% confluence, they were treated with 1 mL of trypsin and resuspended at a density of 10^5 cells/mL. Then, 100 μL of cell suspension was seeded into each well of a 96-well plate and incubated in a humidified atmosphere. The different concentrations of KJ-5 and KJ-12 (0, 1, 2, 4, 8, 16, and 32 μM) were added to each well, and the cells were further incubated for 48 h. Afterward, 20 μL of the MTT solution (5 mg/mL) was added to each well, and incubation was continued for another 4 h. The supernatant was discarded, and 200 μL of the DMSO solution was added to each well. The plate was shaken for 10 min in the dark. The absorbance values were measured at 490 nm using an enzyme-linked detector. The cell inhibition rate (%) was calculated using the following formula: (1-Mean A490 sample/Mean A490 control) × 100%.

HeLa cells = experiment: MTT assay for cell proliferation, HeLa; parameters: key to Inhibitory rate: inhibition rate = 1 - mean A490 sample/mean A490 control (fraction); conditions: Hela; for Inhibitory rate / ODtreated/ODcontrol: fraction, per experiment; for Inhibition rate (16μM), 48 h, Hela: preliminary screening, mean±SD, unit not given
Method: as §1, §2

MCF-7 cells = experiment: MTT assay for cell proliferation, MCF-7; parameters: key to Inhibitory rate / Inhibition rate: inhibition rate = 1 - mean A490 sample/mean A490 control (fraction); conditions: for Inhibition rate (16μM), 48 h, MCF-7: preliminary screening, MCF-7, 16 μM, mean±SD, unit not given
Method: as §1, §2

KYSE-30 cells = experiment: MTT assay for cell proliferation, KYSE-30; parameters: key to Inhibitory rate: inhibition rate = 1 - mean A490 sample/mean A490 control (fraction); conditions: for Inhibitory rate: KYSE-30, given as fraction; for Inhibition rate (16μM), 48 h, KYSE-30: preliminary screening, KYSE-30, 16 μM, mean±SD, unit not given
Method: as §1, §2

[1] = MCF-7, fraction, per experiment
[2] = given as fraction, second of three experiments
[3] = given as fraction, third of three experiments
[4] = KYSE-30, first of three experiments
[5] = KYSE-30, second of three experiments
[6] = KYSE-30, third of three experiments

| SMILES | IC50 (HepG2 cells) [µM] | Inhibitory rate (HepG2 cells) | ODtreated/ODcontrol (HepG2 cells) | Inhibition rate (16μM), 48 h, HepG2 (HepG2 cells) | Inhibitory rate (HeLa cells) | ODtreated/ODcontrol (HeLa cells) | Inhibition rate (16μM), 48 h, Hela (HeLa cells) | Inhibitory rate (MCF-7 cells; [1]) | ODtreated/ODcontrol (MCF-7 cells; [1]) | Inhibitory rate (MCF-7 cells; [2]) | Inhibition rate (MCF-7 cells; [3]) | Inhibition rate (16μM), 48 h, MCF-7 (MCF-7 cells) | ODtreated/ODcontrol (MCF-7 cells; second of three experiments) | ODtreated/ODcontrol (MCF-7 cells; third of three experiments) | ODtreated/ODcontrol (KYSE-30 cells; [4]) | Inhibitory rate (KYSE-30 cells; first of three experiments) | Inhibitory rate (KYSE-30 cells; second of three experiments) | Inhibitory rate (KYSE-30 cells; third of three experiments) | ODtreated/ODcontrol (KYSE-30 cells; [5]) | Inhibition rate (16μM), 48 h, KYSE-30 (KYSE-30 cells) | other results |
| --- | --- | --- | --- | --- | --- | --- | --- | --- | --- | --- | --- | --- | --- | --- | --- | --- | --- | --- | --- | --- | --- |
| COc1c2n(cc(C(=O)Nc3cccc(-c4cn(-c5ccc(C(F)(F)F)cc5)nn4)c3)c1=O)C[C@H]1OC[C@H](C)N1C2=O [KJ-10] | > 50 | 0.3299 and 0.3414 and 0.3063 | 0.6701 and 0.6586 and 0.6937 | 32.59±1.79 | 0.353 and 0.3445 and 0.3223 | 0.647 and 0.6555 and 0.6777 | 33.99±1.59 | 0.366 | 0.634 | 0.3141 | 0.2908 | 33.36±3.87 | 0.6859 | 0.7092 | 0.6507 | 0.3493 | 0.2142 | 0.2217 | 0.7858 | 26.17±7.59 | ODtreated/ODcontrol (KYSE-30 cells; [6]): 0.7783 |
| COc1c2n(cc(C(=O)Nc3cccc(-c4cn(-c5cc(C(F)(F)F)ccc5C(F)(F)F)nn4)c3)c1=O)CC1OCC(C)N1C2=O (stereo not shown) [KJ-11] | > 50 | 0.2636 and 0.2471 and 0.2291 | 0.7364 and 0.7529 and 0.7709 | 24.66±1.73 | 0.2491 and 0.2184 and 0.2018 | 0.7509 and 0.7816 and 0.7982 | 22.31±2.4 | 0.1458 | 0.8542 | 0.193 | 0.2016 | 18.01±3.00 | 0.807 | 0.7984 | 0.7351 | 0.2649 | 0.225 | 0.2137 | 0.775 | 23.45±2.69 | ODtreated/ODcontrol (KYSE-30 cells; [6]): 0.7863 |
| COc1c2n(cc(C(=O)Nc3cccc(-c4cn(-c5ccccc5Br)nn4)c3)c1=O)CC1OCC(C)N1C2=O (stereo not shown) [KJ-13] | > 50 | 0.2436 and 0.2489 and 0.2333 | 0.7564 and 0.7511 and 0.7667 | 24.19±0.79 | 0.1723 and 0.1977 and 0.2047 | 0.8277 and 0.8023 and 0.7953 | 19.16±1.71 | 0.2953 | 0.7047 | 0.2534 | 0.2193 | 25.6±3.81 | 0.7467 | 0.7807 | 0.7102 | 0.2898 | 0.2542 | 0.2107 | 0.7458 | 25.16±3.96 | ODtreated/ODcontrol (KYSE-30 cells; [6]): 0.7893 |
| COc1c2n(cc(C(=O)Nc3cccc(-c4cn(-c5ccc(F)cc5)nn4)c3)c1=O)CC1OCC(C)N1C2=O (stereo not shown) [KJ-14] | 9.94 ± 0.78 | 0.5683 and 0.5455 and 0.5583 | 0.4317 and 0.4545 and 0.4417 | 55.74±1.15 | 0.494 and 0.5678 and 0.4688 | 0.506 and 0.4322 and 0.5312 | 51.02±5.15 | 0.4819 | 0.5181 | 0.5123 | 0.5403 | 51.15±2.92 | 0.4877 | 0.4597 | 0.5122 | 0.4878 | 0.5323 |  | 0.4677 | 52.98±4.08 |  |
| COc1c2n(cc(C(=O)Nc3cccc(-c4cn(-c5ccccc5I)nn4)c3)c1=O)CC1OCC(C)N1C2=O (stereo not shown) [KJ-15] | 41.8 ± 1.22 | 0.3617 and 0.3472 and 0.3578 | 0.6383 and 0.6528 and 0.6422 | 35.56±0.75 | 0.2424 and 0.3317 and 0.2684 | 0.7576 and 0.6683 and 0.7316 | 28.08±4.59 | 0.3627 | 0.6373 | 0.3633 | 0.3314 | 35.25±1.83 | 0.6367 | 0.6686 | 0.5987 | 0.4013 | 0.4302 | 0.3963 | 0.5698 | 40.93±1.83 | ODtreated/ODcontrol (KYSE-30 cells; [6]): 0.6037 |
| COc1c2n(cc(C(=O)Nc3cccc(-c4cn(-c5ccccc5)nn4)c3)c1=O)CC1OCC(C)N1C2=O (stereo not shown) [KJ-16] | 28.82 ± 0.1 | 0.4156 and 0.4284 and 0.3769 | 0.5844 and 0.5716 and 0.6231 | 40.70±2.68 | 0.3434 and 0.3651 and 0.3539 | 0.6566 and 0.6349 and 0.6461 | 35.41±1.09 | 0.4071 | 0.5929 | 0.3917 | 0.4369 | 41.19±2.3 | 0.6083 | 0.5631 | 0.634 | 0.366 | 0.4151 | 0.4118 | 0.5849 | 39.76±2.74 | ODtreated/ODcontrol (KYSE-30 cells; [6]): 0.5882 |
| COc1c2n(cc(C(=O)Nc3cccc(-c4cn(-c5cccc(Cl)c5)nn4)c3)c1=O)CC1OCC(C)N1C2=O (stereo not shown) [KJ-17] | 9.83 ± 0.85 | 0.6231 and 0.6364 and 0.626 | 0.3769 and 0.3636 and 0.374 | 62.85±0.70 | 0.5384 and 0.6161 and 0.6258 | 0.4616 and 0.3839 and 0.3742 | 59.34±4.79 | 0.5766 | 0.4234 | 0.4958 | 0.6004 | 55.76±5.48 | 0.5042 | 0.3996 | 0.4828 | 0.5172 | 0.6074 | 0.5319 | 0.3926 | 55.22±4.84 | ODtreated/ODcontrol (KYSE-30 cells; [6]): 0.4681 |
